Values quoted from earlier work as cited in patent US6673908B1, “Tumor necrosis factor receptor 2” (Nuvelo, Inc., priority 1999, dated 2004).
Structures can show the parent of a compound that is named as a salt. Where two headings read alike, the source gives them in different places.

Columns and labels:
[1] = system: advanced colorectal cancer
CD3 lymphocytes = details: in vivo
5-lipoxygenase (5-LO) = molecular target: T1, 5-lipoxygenase (5-LO) (Homo sapiens, UniProt P09917); details: for FEV1, % change from baseline: high dose
T1 construct: host or cells: asthma patients (in vivo, endogenous enzyme)
T1 sequence (P09917 1-674): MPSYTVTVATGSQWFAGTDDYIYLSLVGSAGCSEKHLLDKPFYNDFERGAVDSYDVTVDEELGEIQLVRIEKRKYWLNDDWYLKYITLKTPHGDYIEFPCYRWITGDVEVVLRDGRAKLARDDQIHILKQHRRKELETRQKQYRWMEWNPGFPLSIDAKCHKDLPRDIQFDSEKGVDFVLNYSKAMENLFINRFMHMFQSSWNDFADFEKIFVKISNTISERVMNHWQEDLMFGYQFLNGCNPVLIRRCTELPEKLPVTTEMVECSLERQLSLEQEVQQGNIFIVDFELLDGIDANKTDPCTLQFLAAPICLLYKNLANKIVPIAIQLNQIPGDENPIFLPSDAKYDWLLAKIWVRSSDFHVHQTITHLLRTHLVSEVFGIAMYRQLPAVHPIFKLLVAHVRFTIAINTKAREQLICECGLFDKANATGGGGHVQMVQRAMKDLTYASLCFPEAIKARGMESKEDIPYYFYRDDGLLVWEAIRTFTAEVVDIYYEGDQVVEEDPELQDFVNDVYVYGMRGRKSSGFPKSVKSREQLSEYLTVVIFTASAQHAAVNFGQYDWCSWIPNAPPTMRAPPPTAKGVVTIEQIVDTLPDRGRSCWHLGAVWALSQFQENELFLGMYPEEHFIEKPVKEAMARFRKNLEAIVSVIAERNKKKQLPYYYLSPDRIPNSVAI

Q: Which “patients with a complete response (complete tumor disappearance)” value [1] does the source give for `O=c1[nH]cc(F)c(=O)[nH]1` [5-fluorouracil] here?
A: 1-5%

Q: What about the “patients with an objective response” value [1] of the same compound?
A: 20-40%

Q: For `COc1ccc(CC(C)NCC(O)c2ccc(O)c(NC=O)c2)cc1` (stereo not shown) [Formoterol], which “Degree of Brochodilator Desensitisation after Formoterol Therapy: 6 Hour FEF25-75” value (shortened to “Degree … 6 Hour FEF25-75”) (β2-adrenergic receptor; Arg 16 (n = 4)) is on record?
A: 23%

Q: What about the “Degree of Brochodilator Desensitisation after Formoterol Therapy: 6 hour FEV1” value (“Degree … 6 hour FEV1” below) (β2-adrenergic receptor; Arg 16 (n = 4)) of the same compound?
A: 28%

Q: And the “Degree of Brochodilator Desensitisation after Formoterol Therapy: Maximal FEF25-75” value (from here on “Degree … Maximal FEF25-75”) (β2-adrenergic receptor; Arg 16 (n = 4))?
A: −35%

Q: And the “Degree of Brochodilator Desensitisation after Formoterol Therapy: Maximal FEV1” value (“Degree … Maximal FEV1” below) (β2-adrenergic receptor; Arg 16 (n = 4))?
A: −8%

Q: What about the “mean FEV1 desensitisation” value (β2-adrenergic receptor; Arg16 homozygotes) of the same compound?
A: 28%

Q: And the “Degree … 6 Hour FEF25-75” value (β2-adrenergic receptor; Gln27 (n = 5))?
A: 38%

Q: What about the “Degree … 6 hour FEV1” value (β2-adrenergic receptor; Gln27 (n = 5)) of the same compound?
A: 47%

Q: And the “Degree … Maximal FEF25-75” value (β2-adrenergic receptor; Gln27 (n = 5))?
A: −15%

Q: What about the “Degree … Maximal FEV1” value (β2-adrenergic receptor; Gln27 (n = 5)) of the same compound?
A: 3%

Q: What about the “Degree … 6 Hour FEF25-75” value (β2-adrenergic receptor; Glu/Gln27 (n = 11)) of the same compound?
A: 70%

Q: What about the “Degree … 6 hour FEV1” value (β2-adrenergic receptor; Glu/Gln27 (n = 11)) of the same compound?
A: 65%

Q: And the “Degree … Maximal FEF25-75” value (β2-adrenergic receptor; Glu/Gln27 (n = 11))?
A: 45%

Q: And the “Degree … Maximal FEV1” value (β2-adrenergic receptor; Glu/Gln27 (n = 11))?
A: 52%

Q: And the “Degree … 6 Hour FEF25-75” value (β2-adrenergic receptor; Gly 16 (n = 10))?
A: 103%

Q: What about the “Degree … 6 hour FEV1” value (β2-adrenergic receptor; Gly 16 (n = 10)) of the same compound?
A: 80%

Q: And the “Degree … Maximal FEF25-75” value (β2-adrenergic receptor; Gly 16 (n = 10))?
A: 73%

Q: What about the “Degree … Maximal FEV1” value (β2-adrenergic receptor; Gly 16 (n = 10)) of the same compound?
A: 48%

Q: And the “mean FEV1 desensitisation” value (β2-adrenergic receptor; Gly16 homozygotes)?
A: 80%

Q: What about the “Degree … 6 Hour FEF25-75” value (β2-adrenergic receptor; Gly/Arg 16 (n = 8)) of the same compound?
A: 70%

Q: What about the “Degree … 6 hour FEV1” value (β2-adrenergic receptor; Gly/Arg 16 (n = 8)) of the same compound?
A: 57%

Q: What about the “Degree … Maximal FEF25-75” value (β2-adrenergic receptor; Gly/Arg 16 (n = 8)) of the same compound?
A: 50%

Q: What about the “Degree … Maximal FEV1” value (β2-adrenergic receptor; Gly/Arg 16 (n = 8)) of the same compound?
A: 48%

Q: Which results are given for “Monoclonal antibody: murine monoclonal antibody to deplete the circulating CD3 lymphocytes; reacts with the T3 recognition site of T-lymphocytes”?
A: sensitization rate (CD3 lymphocytes): 15-40%; treated patients producing human anti-mouse antibodies (HAMA) (CD3 lymphocytes): 80%

Q: Which results are given for `C[C@H](C#Cc1ccc(Cc2ccc(F)cc2)s1)N(O)C(N)=O` [ABT-761]?
A: FEV1, % change from baseline (5-lipoxygenase (5-LO); Mutant, Day 8): 1.8%; FEV1, % change from baseline (5-lipoxygenase (5-LO); Mutant, Day 84): 5%; FEV1, % change from baseline (5-lipoxygenase (5-LO); Wild type, Day 8): 8.2%; FEV1, % change from baseline (5-lipoxygenase (5-LO); Wild type, Day 84): 18.5%; improvement of forced expiratory volume (5-lipoxygenase (5-LO); heterozygous patients, high-dose active treatment, within one week): 23.3±6.0%; improvement of forced expiratory volume (5-lipoxygenase (5-LO); patients with mutant genotype, active 5-LO inhibitor treatment): −1.2±2.9%; improvement of forced expiratory volume (5-lipoxygenase (5-LO); wild-type patients, high-dose active treatment): 18.8±3.6%

Q: With `Nc1c2c(nc3ccccc13)CCCC2` [Cognex, tacrine hydrochloride] as the compound, how does the “patients showing no change or minimal worsening of their disease” value (Alzheimer's disease patients) read?
A: about 45%

Q: And the patients minimally improved (Alzheimer's patients)?
A: About 58%

Q: What about the patients much improved (Alzheimer's patients) of the same compound?
A: about 2%

Q: With interferon alpha as the compound, how does the “patients in whom viral infection is completely and permanently eliminated” value (hepatitis C virus (HCV); hepatitis C virus infection) read?
A: less than a quarter of patients

Q: And the “patients receiving virtually no benefit” value (hepatitis C virus (HCV); hepatitis C virus infection)?
A: Nearly half of patients

Q: What about the response rates (hepatitis C virus (HCV); patients with HCV genotype 1 (especially 1b)) of the same compound?
A: under 10%

Q: And the response rates (hepatitis C virus (HCV); patients with HCV genotype 2 or 3)?
A: greater than 40%
